Reference: publication PMC9532703, “A novel small molecule RK-019 inhibits FGFR2-amplification gastric cancer cell proliferation and induces apoptosis in vitro and in vivo” (Frontiers in Pharmacology, 2022)

Tests used:
Assay in all cases: Kinase selectivity panel
Type in all cases: biochemical
Settings in all cases: read-out: Inhibition(%) @ 1 µM RK-019
[1] = biological target: T1, PI3 Kinase (p110a(E545K)/p85a)(h) (Homo sapiens, UniProt P42336, E545K)
T1 construct: purchased Eurofins Discovery Services (KinaseProfiler)
Outline: (§1)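 Recombinant human kinase incubated with 1 µM compound; ATP-site competition binding quantified in vitro as inhibition ratio.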

Pim-3(h) = biological target: T2, Pim-3(h) (Homo sapiens, UniProt Q86V86)
T2 construct: purchased Eurofins Discovery Services (KinaseProfiler)
Outline: as §1

Hck(h) = biological target: T3, Hck(h) (Homo sapiens, UniProt P08631)
T3 construct: purchased Eurofins Discovery Services (KinaseProfiler)
Outline: as §1

PDK1(h) = biological target: T4, PDK1(h) (Homo sapiens, UniProt O15530)
T4 construct: purchased Eurofins Discovery Services (KinaseProfiler)
Outline: as §1

WNK3(h) = biological target: T5, WNK3(h) (Homo sapiens, UniProt Q9BYP7)
T5 construct: purchased Eurofins Discovery Services (KinaseProfiler)
Outline: as §1

SGK3(h) = biological target: T6, SGK3(h) (Homo sapiens, UniProt Q96BR1)
T6 construct: purchased Eurofins Discovery Services (KinaseProfiler)
Outline: as §1

[2] = biological target: T7, PI3 Kinase (p110a(E545K)/p85a)(m) (Mus musculus, UniProt P42337, E545K)
T7 construct: purchased Eurofins Discovery Services (KinaseProfiler)

Wee1(h) = biological target: T8, Wee1(h) (Homo sapiens, UniProt P30291)
T8 construct: purchased Eurofins Discovery Services (KinaseProfiler)
Outline: as §1

CaMKIIα(h) = biological target: T9, CaMKIIα(h) (Homo sapiens, UniProt Q9UQM7)
T9 construct: purchased Eurofins Discovery Services (KinaseProfiler)
Outline: as §1

[3] = biological target: T10, PI3 Kinase (p110a/p65a)(m) (Mus musculus, UniProt P42337)
T10 construct: purchased Eurofins Discovery Services (KinaseProfiler)

DCAMKL2(h) = biological target: T11, DCAMKL2(h) (Homo sapiens, UniProt Q8N568)
T11 construct: purchased Eurofins Discovery Services (KinaseProfiler)
Outline: as §1

MSK2(h) = biological target: T12, MSK2(h) (Homo sapiens, UniProt O75676)
T12 construct: purchased Eurofins Discovery Services (KinaseProfiler)
Outline: as §1

EGFR(T790M)(h) = biological target: T13, EGFR(T790M)(h) (Homo sapiens, UniProt P00533, T790M)
T13 construct: purchased Eurofins Discovery Services (KinaseProfiler)
Outline: as §1

Pim-2(h) = biological target: T14, Pim-2(h) (Homo sapiens, UniProt Q9P1W9)
T14 construct: purchased Eurofins Discovery Services (KinaseProfiler)
Outline: as §1

Abl (H396P) (h) = biological target: T15, Abl (H396P) (h) (Homo sapiens, UniProt P00519, H396P)
T15 construct: purchased Eurofins Discovery Services (KinaseProfiler)
Outline: as §1

Mer(h) = biological target: T16, Mer(h) (Homo sapiens, UniProt Q12866)
T16 construct: purchased Eurofins Discovery Services (KinaseProfiler)
Outline: as §1

TRB2(h) = biological target: T17, TRB2(h) (Homo sapiens, UniProt Q92519)
T17 construct: purchased Eurofins Discovery Services (KinaseProfiler)
Outline: as §1

MARK1(h) = biological target: T18, MARK1(h) (Homo sapiens, UniProt Q9P0L2)
T18 construct: purchased Eurofins Discovery Services (KinaseProfiler)
Outline: as §1

Fms(h) = biological target: T19, Fms(h) (Homo sapiens, UniProt P07333)
T19 construct: purchased Eurofins Discovery Services (KinaseProfiler)
Outline: as §1

GRK3(h) = biological target: T20, GRK3(h) (Homo sapiens, UniProt P35626)
T20 construct: purchased Eurofins Discovery Services (KinaseProfiler)
Outline: as §1

Flt3(D835Y)(h) = biological target: T21, Flt3(D835Y)(h) (Homo sapiens, UniProt P36888, D835Y)
T21 construct: purchased Eurofins Discovery Services (KinaseProfiler)
Outline: as §1

GSK3α(h) = biological target: T22, GSK3α(h) (Homo sapiens, UniProt P49840)
T22 construct: purchased Eurofins Discovery Services (KinaseProfiler)
Outline: as §1

B-Raf(h) = biological target: T23, B-Raf(h) (Homo sapiens, UniProt P15056)
T23 construct: purchased Eurofins Discovery Services (KinaseProfiler)
Outline: as §1

FGFR1(V561M)(h) = biological target: T24, FGFR1(V561M)(h) (Homo sapiens, UniProt P11362, V561M)
T24 construct: purchased Eurofins Discovery Services (KinaseProfiler)
Outline: as §1

Plk4(h) = biological target: T25, Plk4(h) (Homo sapiens, UniProt O00444)
T25 construct: purchased Eurofins Discovery Services (KinaseProfiler)
Outline: as §1

PI3KC2g(h) = biological target: T26, PI3KC2g(h) (Homo sapiens, UniProt O75747)
T26 construct: purchased Eurofins Discovery Services (KinaseProfiler)
Outline: as §1

[4] = biological target: T27, PI3 Kinase (p110b/p85a)(m) (Mus musculus, UniProt Q8BTI9)
T27 construct: purchased Eurofins Discovery Services (KinaseProfiler)

PKCε(h) = biological target: T28, PKCε(h) (Homo sapiens, UniProt Q02156)
T28 construct: purchased Eurofins Discovery Services (KinaseProfiler)
Outline: as §1

SGK2(h) = biological target: T29, SGK2(h) (Homo sapiens, UniProt Q9HBY8)
T29 construct: purchased Eurofins Discovery Services (KinaseProfiler)
Outline: as §1

MELK(h) = biological target: T30, MELK(h) (Homo sapiens, UniProt Q14680)
T30 construct: purchased Eurofins Discovery Services (KinaseProfiler)
Outline: as §1

cSRC(h) = biological target: T31, cSRC(h) (Homo sapiens, UniProt P12931)
T31 construct: purchased Eurofins Discovery Services (KinaseProfiler)
Outline: as §1

DRAK2(h) = biological target: T32, DRAK2(h) (Homo sapiens, UniProt O94768)
T32 construct: purchased Eurofins Discovery Services (KinaseProfiler)
Outline: as §1

CDK16/cyclinY(h) = biological target: T33, CDK16/cyclinY(h) (Homo sapiens, UniProt Q00536)
T33 construct: purchased Eurofins Discovery Services (KinaseProfiler)
Outline: as §1

TBK1(h) = biological target: T34, TBK1(h) (Homo sapiens, UniProt Q9UHD2)
T34 construct: purchased Eurofins Discovery Services (KinaseProfiler)
Outline: as §1

PI3KC2a(h) = biological target: T35, PI3KC2a(h) (Homo sapiens, UniProt O00443)
T35 construct: purchased Eurofins Discovery Services (KinaseProfiler)
Outline: as §1

MAPKAP-K3(h) = biological target: T36, MAPKAP-K3(h) (Homo sapiens, UniProt Q16644)
T36 construct: purchased Eurofins Discovery Services (KinaseProfiler)
Outline: as §1

T1 sequence (P42336 whole entry E545K): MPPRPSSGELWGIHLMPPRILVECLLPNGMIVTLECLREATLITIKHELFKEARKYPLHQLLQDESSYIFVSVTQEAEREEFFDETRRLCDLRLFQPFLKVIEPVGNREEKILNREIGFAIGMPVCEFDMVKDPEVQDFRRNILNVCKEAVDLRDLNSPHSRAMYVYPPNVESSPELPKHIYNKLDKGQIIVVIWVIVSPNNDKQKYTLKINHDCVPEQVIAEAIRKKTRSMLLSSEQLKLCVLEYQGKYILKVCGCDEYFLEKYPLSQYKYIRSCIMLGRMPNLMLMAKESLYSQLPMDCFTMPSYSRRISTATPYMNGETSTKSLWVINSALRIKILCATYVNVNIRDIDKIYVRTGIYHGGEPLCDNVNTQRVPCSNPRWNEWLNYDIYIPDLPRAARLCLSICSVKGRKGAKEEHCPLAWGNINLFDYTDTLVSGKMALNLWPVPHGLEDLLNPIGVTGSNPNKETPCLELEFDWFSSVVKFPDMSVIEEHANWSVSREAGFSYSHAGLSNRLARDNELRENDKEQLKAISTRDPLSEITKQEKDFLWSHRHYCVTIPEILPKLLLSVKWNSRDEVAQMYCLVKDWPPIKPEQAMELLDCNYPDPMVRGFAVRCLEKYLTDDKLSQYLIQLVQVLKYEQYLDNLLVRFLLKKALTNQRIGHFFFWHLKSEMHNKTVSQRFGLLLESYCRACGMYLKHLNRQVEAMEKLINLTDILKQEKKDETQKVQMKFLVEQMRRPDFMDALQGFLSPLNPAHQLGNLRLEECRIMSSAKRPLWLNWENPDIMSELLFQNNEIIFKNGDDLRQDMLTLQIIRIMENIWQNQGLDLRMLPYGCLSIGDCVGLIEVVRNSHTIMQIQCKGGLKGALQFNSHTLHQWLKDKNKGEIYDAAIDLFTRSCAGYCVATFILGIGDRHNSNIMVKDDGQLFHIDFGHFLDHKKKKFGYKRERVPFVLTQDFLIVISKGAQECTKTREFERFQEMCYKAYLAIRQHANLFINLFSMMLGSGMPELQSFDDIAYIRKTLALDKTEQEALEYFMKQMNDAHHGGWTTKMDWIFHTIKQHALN
T1 sequence (P27986 whole entry partner): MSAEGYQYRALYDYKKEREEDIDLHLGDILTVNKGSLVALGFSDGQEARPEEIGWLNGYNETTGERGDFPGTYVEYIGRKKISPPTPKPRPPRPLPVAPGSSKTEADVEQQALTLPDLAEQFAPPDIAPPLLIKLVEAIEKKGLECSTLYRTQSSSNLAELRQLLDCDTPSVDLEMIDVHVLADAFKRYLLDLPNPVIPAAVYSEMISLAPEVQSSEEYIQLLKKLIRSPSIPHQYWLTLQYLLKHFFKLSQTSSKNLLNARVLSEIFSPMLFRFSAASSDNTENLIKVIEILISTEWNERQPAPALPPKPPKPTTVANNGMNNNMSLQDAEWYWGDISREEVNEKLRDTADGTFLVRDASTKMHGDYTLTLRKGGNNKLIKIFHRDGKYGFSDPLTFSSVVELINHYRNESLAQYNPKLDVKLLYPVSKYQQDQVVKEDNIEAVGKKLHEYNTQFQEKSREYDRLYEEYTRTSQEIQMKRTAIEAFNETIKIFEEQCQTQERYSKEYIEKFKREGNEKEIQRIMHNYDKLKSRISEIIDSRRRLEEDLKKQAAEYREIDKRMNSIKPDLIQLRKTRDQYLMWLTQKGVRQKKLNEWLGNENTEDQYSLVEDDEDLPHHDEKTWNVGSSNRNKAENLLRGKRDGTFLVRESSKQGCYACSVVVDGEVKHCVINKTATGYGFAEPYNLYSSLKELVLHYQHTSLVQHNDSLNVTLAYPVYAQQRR
T11 sequence (Q8N568 whole entry): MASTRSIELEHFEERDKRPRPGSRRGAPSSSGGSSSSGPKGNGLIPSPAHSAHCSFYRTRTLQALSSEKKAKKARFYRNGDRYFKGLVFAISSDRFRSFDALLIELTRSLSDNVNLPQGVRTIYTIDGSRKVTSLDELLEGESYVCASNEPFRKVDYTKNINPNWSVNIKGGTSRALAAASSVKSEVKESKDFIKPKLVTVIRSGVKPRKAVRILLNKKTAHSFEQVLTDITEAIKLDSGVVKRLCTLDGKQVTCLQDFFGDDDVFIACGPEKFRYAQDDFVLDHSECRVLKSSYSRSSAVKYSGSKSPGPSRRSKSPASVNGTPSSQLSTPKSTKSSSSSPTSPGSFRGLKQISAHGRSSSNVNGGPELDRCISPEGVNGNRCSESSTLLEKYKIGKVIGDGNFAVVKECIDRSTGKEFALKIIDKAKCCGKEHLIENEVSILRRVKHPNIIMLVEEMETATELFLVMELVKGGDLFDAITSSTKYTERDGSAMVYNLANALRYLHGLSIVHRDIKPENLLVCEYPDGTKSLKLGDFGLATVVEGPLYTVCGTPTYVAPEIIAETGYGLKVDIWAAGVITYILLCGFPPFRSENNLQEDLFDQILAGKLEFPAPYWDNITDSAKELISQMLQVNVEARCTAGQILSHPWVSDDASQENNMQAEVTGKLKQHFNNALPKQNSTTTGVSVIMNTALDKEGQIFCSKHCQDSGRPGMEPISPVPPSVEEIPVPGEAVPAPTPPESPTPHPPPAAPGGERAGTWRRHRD
T5 sequence (Q9BYP7 whole entry): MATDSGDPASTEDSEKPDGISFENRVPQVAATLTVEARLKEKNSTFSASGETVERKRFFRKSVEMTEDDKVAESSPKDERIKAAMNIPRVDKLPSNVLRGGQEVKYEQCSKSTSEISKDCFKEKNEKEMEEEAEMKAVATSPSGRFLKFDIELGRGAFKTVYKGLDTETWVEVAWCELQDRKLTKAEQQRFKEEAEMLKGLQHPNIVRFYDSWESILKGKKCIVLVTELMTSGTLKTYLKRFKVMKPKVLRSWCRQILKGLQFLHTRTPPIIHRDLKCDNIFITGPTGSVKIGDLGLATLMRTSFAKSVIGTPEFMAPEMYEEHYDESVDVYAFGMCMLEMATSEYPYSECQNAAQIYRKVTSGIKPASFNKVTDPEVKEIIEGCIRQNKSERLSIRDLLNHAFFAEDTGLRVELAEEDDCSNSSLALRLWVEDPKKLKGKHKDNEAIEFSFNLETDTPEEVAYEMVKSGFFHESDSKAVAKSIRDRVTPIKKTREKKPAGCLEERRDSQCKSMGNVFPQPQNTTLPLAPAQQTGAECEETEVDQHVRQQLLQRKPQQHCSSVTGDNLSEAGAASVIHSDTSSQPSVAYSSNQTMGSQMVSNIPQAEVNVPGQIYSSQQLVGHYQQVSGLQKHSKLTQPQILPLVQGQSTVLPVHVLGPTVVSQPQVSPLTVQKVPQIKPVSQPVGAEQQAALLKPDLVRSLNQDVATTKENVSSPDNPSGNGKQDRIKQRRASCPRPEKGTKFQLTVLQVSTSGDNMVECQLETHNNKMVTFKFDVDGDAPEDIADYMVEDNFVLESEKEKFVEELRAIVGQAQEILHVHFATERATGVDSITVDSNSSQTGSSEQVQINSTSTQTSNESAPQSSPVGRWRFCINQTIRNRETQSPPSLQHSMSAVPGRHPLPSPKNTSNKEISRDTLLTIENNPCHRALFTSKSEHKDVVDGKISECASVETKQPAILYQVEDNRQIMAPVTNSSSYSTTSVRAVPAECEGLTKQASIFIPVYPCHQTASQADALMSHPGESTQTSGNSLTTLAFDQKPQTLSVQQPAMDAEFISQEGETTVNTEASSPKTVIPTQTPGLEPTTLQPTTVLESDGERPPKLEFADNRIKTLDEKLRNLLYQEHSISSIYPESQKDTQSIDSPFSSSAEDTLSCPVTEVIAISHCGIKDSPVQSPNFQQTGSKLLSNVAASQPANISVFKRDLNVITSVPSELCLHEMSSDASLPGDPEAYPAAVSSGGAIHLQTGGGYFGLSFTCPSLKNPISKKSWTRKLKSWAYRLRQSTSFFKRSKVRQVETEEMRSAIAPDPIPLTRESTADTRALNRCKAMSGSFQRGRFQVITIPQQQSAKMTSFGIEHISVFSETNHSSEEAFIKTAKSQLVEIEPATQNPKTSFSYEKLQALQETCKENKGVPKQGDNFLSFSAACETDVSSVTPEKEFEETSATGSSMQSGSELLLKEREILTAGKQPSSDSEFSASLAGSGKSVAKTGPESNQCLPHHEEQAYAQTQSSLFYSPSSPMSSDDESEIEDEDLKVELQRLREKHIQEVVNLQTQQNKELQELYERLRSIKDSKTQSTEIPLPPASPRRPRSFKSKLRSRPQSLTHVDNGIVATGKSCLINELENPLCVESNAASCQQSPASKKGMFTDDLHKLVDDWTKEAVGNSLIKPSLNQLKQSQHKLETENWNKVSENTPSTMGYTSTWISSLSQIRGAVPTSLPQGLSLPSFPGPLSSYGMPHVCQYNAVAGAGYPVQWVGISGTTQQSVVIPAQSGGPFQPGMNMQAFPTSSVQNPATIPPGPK
T20 sequence (P35626 whole entry): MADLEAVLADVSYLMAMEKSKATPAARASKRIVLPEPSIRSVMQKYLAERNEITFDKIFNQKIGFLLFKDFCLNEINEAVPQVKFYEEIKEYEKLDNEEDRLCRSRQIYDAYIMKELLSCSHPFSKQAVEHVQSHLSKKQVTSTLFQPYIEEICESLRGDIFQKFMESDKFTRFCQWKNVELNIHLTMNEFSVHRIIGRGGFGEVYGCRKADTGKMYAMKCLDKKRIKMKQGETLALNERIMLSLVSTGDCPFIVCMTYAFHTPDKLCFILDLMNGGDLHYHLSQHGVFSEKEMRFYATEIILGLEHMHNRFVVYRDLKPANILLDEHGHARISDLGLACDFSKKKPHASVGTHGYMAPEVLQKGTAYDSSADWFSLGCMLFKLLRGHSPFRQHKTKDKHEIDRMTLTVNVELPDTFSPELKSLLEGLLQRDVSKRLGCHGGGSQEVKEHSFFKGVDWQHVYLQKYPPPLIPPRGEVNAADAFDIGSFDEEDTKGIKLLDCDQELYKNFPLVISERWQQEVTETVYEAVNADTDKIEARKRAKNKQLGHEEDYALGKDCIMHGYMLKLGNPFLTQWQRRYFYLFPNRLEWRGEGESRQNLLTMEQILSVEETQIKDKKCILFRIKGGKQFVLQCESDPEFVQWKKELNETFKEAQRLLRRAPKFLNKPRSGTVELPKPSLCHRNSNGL

COc1cc(OC)cc(N(CCN[C@H](C)CO)c2ccc3ncc(-c4cnn(C)c4)c(=O)n3c2)c1 [RK-019, (R)-7-((3,5-dimethoxyphenyl) (2-((1-hydroxypropan-2-yl)amino)ethyl)amino)-3-(1-methyl-1H-pyrazol-4-yl)-4H-pyrido [1,2-a]pyrimidin-4-one]
activity at 1 µM [1]: 100% | activity at 1 µM (Pim-3(h)): 114% | activity at 1 µM (Hck(h)): 27% | activity at 1 µM (PDK1(h)): 110% | activity at 1 µM (WNK3(h)): 110% | activity at 1 µM (SGK3(h)): 97% | activity at 1 µM [2]: 102% | activity at 1 µM (Wee1(h)): 92% | activity at 1 µM (CaMKIIα(h)): 64% | activity at 1 µM [3]: 100% | activity at 1 µM (DCAMKL2(h)): 126% | activity at 1 µM (MSK2(h)): 101% | activity at 1 µM (EGFR(T790M)(h)): 90% | activity at 1 µM (Pim-2(h)): 98% | activity at 1 µM (Abl (H396P) (h)): 49% | activity at 1 µM (Mer(h)): 108% | activity at 1 µM (TRB2(h)): 136% | activity at 1 µM (MARK1(h)): 93% | activity at 1 µM (Fms(h)): 16% | activity at 1 µM (GRK3(h)): 123% | activity at 1 µM (Flt3(D835Y)(h)): 86% | activity at 1 µM (GSK3α(h)): 85% | activity at 1 µM (B-Raf(h)): 124% | activity at 1 µM (FGFR1(V561M)(h)): 70% | activity at 1 µM (Plk4(h)): 91% | activity at 1 µM (PI3KC2g(h)): 102% | activity at 1 µM [4]: 98% | activity at 1 µM (PKCε(h)): 88% | activity at 1 µM (SGK2(h)): 79% | activity at 1 µM (MELK(h)): 104% | activity at 1 µM (cSRC(h)): 54% | activity at 1 µM (DRAK2(h)): 96% | activity at 1 µM (CDK16/cyclinY(h)): 108% | activity at 1 µM (TBK1(h)): 101% | activity at 1 µM (PI3KC2a(h)): 104% | activity at 1 µM (MAPKAP-K3(h)): 109%
